Consider 35 molecules from patent US10155726B2, “Substituted pyridines and uses thereof” (PELOTON THERAPEUTICS, INC., priority 2015, dated 2018).

In assay [1] the target is T1, HIF-2α HIS TAG-PASB Domain (Homo sapiens, UniProt Q99814).
T1 construct: 100 nM HIF-2α HIS TAG-PASB Domain
The experiment in a line: HIF-2α Scintillation Proximity Assay (SPA). Format: binding. The following applies: displacement of tritiated probe from HIF-2α PAS-B domain. How it is done: The total assay volume was about 100 μL in the following configuration: 2 μL compound in 100% DMSO, 88 μL buffer with protein and probe and 10 μL of SPA beads. […] The percent inhibition was determined and IC50 values were calculated using the Dotmatics system based on the following equation: % inhibition=[(high control−sample)/(high control−low control)]×100.
On the technique in general: In a scintillation proximity assay essentially only radioactivity close to the scintillant gives light.

Assay [2] concerns 786-O-Hif-Luc cells. In words: Luciferase Assay. The class given is cell-based. To be noted: about 24 hours. How it is done:
786-O-Hif-Luc single clone cells were obtained by infecting 786-O cells (ATCC® CRL-1932™) with commercial lentivirus that delivers a luciferase gene driven by multiple HIF responsive elements (Cignal Lenti HIF Reporter (luc): CLS-007L, Qiagen) at Multiplicity of Infection (MOI) of 25 for 24 hours. […] A pool of infected cells were then selected against 2 μg/mL of puromycin (P8833, Sigma) for 10 days followed by limited dilution to select single clones. […] For the luciferase assay, about 7500 786-O-Hif-Luc cells in 90 μL growth medium were seeded into each well of a 96-well white opaque plate (08-771-26, Fisher scientific) a day before treatment with the layout presented in FIG. 4. […] Each concentration was tested in triplicate. After about 24 hours, luciferase activity was determined using ONE-Glo Luciferase Assay Reagent (E6110, Promega) following the manufacturer's recommended procedure. EC50 were calculated using Dotmatics software.

Assay [3] has as its system 786-O cells. The experiment in a line: VEGF ELISA Assay. To be noted: Homo sapiens, 786-0; VEGF concentration in culture medium of 786-O cells. The class given is cell-based. How it is done: About 7500 786-O cells in 180 μL of growth medium were seeded into each well of a 96-well, white, clear bottom plate (07-200-566, Fisher Scientific) on day one in the layout presented in FIG. 3. […] Each concentration was plated in duplicate. About 20 hours later, medium was removed by suction and each well was supplied with 180 μL of growth medium. About 20 μl freshly-made 10× compound stocks were added to each well. […] The EC50 was calculated by GraphPad Prism using the dose-response-inhibition (four parameter) equation. The cell-seeded plate was then subjected to CellTiter-Glo luminescence cell viability assay (Promega) by adding 50 μL of Celltiter Glo reagent into each well and shaking the plate for 8 minutes at 550 rpm (Thermomixer R, Eppendorf) then the luminescence signal immediately read in a plate reader (3 second delay, 0.5 second/well integration time, Synergy 2 multi Detection Microplate reader).
In general terms: In an ELISA, binding on a coated surface is turned into a signal by an enzyme label.

T1 sequence (Q99814 239-348): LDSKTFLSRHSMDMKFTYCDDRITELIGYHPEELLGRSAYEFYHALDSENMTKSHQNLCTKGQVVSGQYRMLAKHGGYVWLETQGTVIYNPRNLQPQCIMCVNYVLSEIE

A word on the IC50: it is the concentration that inhibits the measured activity by half. The EC50 is the concentration needed to bring the measured effect to its halfway point. In assay [1], `N#Cc1cc(F)cc(-c2cnc(C(F)(F)F)c3c2C[C@@H](F)[C@H]3O)c1` (racemic) [Compound 7, 3-fluoro-5-((6R,7S)-6-fluoro-7-hydroxy-1-(trifluoromethyl)-6,7-dihydro-5H-cyclopenta[c]pyridin-4-yl)benzonitrile] had an IC50 of 250 to 1000 nM. The molecule also returned an EC50 in assay [2] of 250 to 1000 nM.
With `O[C@H]1c2c(C(F)(F)F)ncc(OC3CC(F)(F)C3)c2C[C@H]1F` [Compound 1, (6R,7S)-4-(3,3-difluorocyclobutoxy)-6-fluoro-1-(trifluoromethyl)-6,7-dihydro-5H-cyclopenta[c]pyridin-7-ol], the IC50 in assay [1] was < 50 nM. Further, the EC50 in assay [3] and in assay [2] was < 50 nM in each case.
In the case of `O[C@@H]1CCc2c(OC3CC(F)(F)C3)cnc(C(F)(F)F)c21` [Compound 2, (R)-4-(3,3-difluorocyclobutoxy)-1-(trifluoromethyl)-6,7-dihydro-5H-cyclopenta[c]pyridin-7-ol], in assay [1], the half-maximal inhibitory concentration (IC50) is < 50 nM. Also, in assay [2], the EC50 is 250 to 1000 nM.
For the molecule `N#Cc1cc(F)cc(Oc2cnc(C(F)(F)F)c3c2C[C@@H](F)[C@H]3O)c1` [Compound 3, 3-fluoro-5-(((6R,7S)-6-fluoro-7-hydroxy-1-(trifluoromethyl)-6,7-dihydro-5H-cyclopenta[c]pyridin-4-yl)oxy)benzonitrile], in assay [1], the IC50 is < 50 nM. For the same molecule, the EC50 is 50 to 249 nM in assay [3] and < 50 nM in assay [2].
Molecule `CS(=O)(=O)c1ncc(Oc2cc(F)cc(C#N)c2)c2c1[C@H](O)[C@H](F)C2` [Compound 4, 3-fluoro-5-(((6R,7S)-6-fluoro-7-hydroxy-1-(methylsulfonyl)-6,7-dihydro-5H-cyclopenta[c]pyridin-4-yl)oxy)benzonitrile] came in with a half-maximal inhibitory concentration (IC50) in assay [1] of 50 to 249 nM. The same molecule yielded an EC50 in assay [2] of 250 to 1000 nM.
The corresponding values for `O=S(=O)(c1cnc(Oc2cc(F)cc(F)c2)c2c1CCC2)C(F)F` [Compound 6, 4-(difluoromethylsulfonyl)-1-(3,5-difluorophenoxy)-6,7-dihydro-5H-cyclopenta[c]pyridine] are > 1000 nM and > 1000 nM.
The corresponding values for `N#Cc1cc(F)cc(Oc2cnc(C(F)(F)F)c3c2CCC3O)c1` (stereo not shown) [Compound 8] are < 50 nM and 250 to 1000 nM.
For `O[C@H]1c2c(C(F)(F)F)ncc(OCC(F)F)c2C[C@H]1F` [Compound 9], the IC50 in assay [1] was < 50 nM. The EC50 in assay [3] lay within 250 to 1000 nM; in assay [2], 50 to 249 nM.
As to `O[C@@H]1CCc2c(OCC(F)F)cnc(C(F)(F)F)c21` [Compound 10], the half-inhibitory concentration (IC50) in assay [1] is > 1000 nM. Moreover, the EC50 in assay [2] is > 1000 nM.
Turning to `CS(=O)(=O)c1ncc(OC2CC(F)(F)C2)c2c1[C@H](O)[C@@H](F)C2` [Compound 11], in assay [1], the IC50 is > 1000 nM.
In turn, `CS(=O)(=O)c1ncc(OC2CC(F)(F)C2)c2c1[C@H](O)[C@H](F)C2` [Compound 12] displayed an IC50 in assay [1] of 250 to 1000 nM. In assay [2], the EC50 is > 1000 nM.
The corresponding values for `O[C@H]1c2c(C(F)(F)F)ncc(Oc3cncc(F)c3)c2C[C@H]1F` [Compound 13] are 50 to 249 nM and 50 to 249 nM.
On to `O[C@H]1c2c(C(F)(F)F)ncc(O[C@H]3C[C@H](F)C3)c2C[C@H]1F` [Compound 14], for which, in assay [1], the IC50 is < 50 nM. Further, the EC50 in assay [3] and in assay [2] was < 50 nM each time.
As to `N#Cc1cc(F)cc(Oc2ncc(Br)c3c2C(F)C(F)(F)C3F)c1` (stereo not shown) [Compound 16], the IC50 in assay [1] is > 1000 nM.
`N#Cc1cc(F)cc(Oc2ncc(Br)c3c2[C@@H](F)C(F)(F)[C@H]3O)c1` [Compound 17]: the IC50 in assay [1] fell in the range of 50 to 249 nM. Further, in assay [2], the EC50 is > 1000 nM.
In the case of `CS(=O)(=O)c1cnc(Oc2cc(F)cc(C#N)c2)c2c1[C@H](O)[C@H](F)[C@@H]2F` [Compound 18], in assay [1], the IC50 is > 1000 nM.
Regarding `CS(=O)(=O)c1cnc(Oc2cc(F)cc(C#N)c2)c2c1[C@H](O)[C@H](F)C2` [Compound 19], the IC50 in assay [1] was > 1000 nM.
Take `CS(=O)(=O)c1cnc(Oc2cc(F)cc(C#N)c2)c2c1[C@H](O)C(F)(F)[C@@H]2F` [Compound 20]: the IC50 in assay [1] is < 50 nM. In addition, the EC50 in assay [2] was > 1000 nM.
The matching figures for `CS(=O)(=O)c1cnc(Oc2cc(F)cc(C#N)c2)c2c1[C@H](O)C(F)(F)[C@H]2F` [Compound 21]: 250 to 1000 nM and > 1000 nM.
The corresponding values for `O[C@H]1c2c(C(F)(F)F)ncc(OCCCF)c2C[C@H]1F` [Compound 23] are < 50 nM and 50 to 249 nM.
In assay [1], `O[C@H]1c2c(C(F)(F)F)ncc(OCCCF)c2C[C@@H]1F` [Compound 24] had an IC50 of 50 to 249 nM.
Same read-out and setting: in the case of `CC(C)Oc1cnc(C(F)(F)F)c2c1C[C@@H](F)[C@H]2O` [Compound 25] it was 250 to 1000 nM.
`CC(C)Oc1cnc(C(F)(F)F)c2c1C[C@H](F)[C@H]2O` [Compound 26]: the IC50 in assay [1] is > 1000 nM.
`O[C@H]1c2c(C(F)(F)F)ncc(OCC(F)F)c2C[C@@H]1F` [Compound 27]: the IC50 in assay [1] was 50 to 249 nM. The molecule also displayed an EC50 in assay [2] of 50 to 249 nM.
With `CS(=O)(=O)c1cnc(Oc2cc(F)cc(C#N)c2)c2c1C(O)CC2` (stereo not shown) [Compound 28], the IC50 in assay [1] was > 1000 nM.
On to `O[C@H]1c2c(C(F)F)ncc(OC3CC(F)(F)C3)c2C[C@H]1F` [Compound 30], for which, in assay [1], the IC50 was > 1000 nM.
The same measure, in the same setting: in the case of `O[C@H]1c2c(C(F)F)ncc(OC3CC(F)(F)C3)c2C[C@@H]1F` [Compound 31] it was > 1000 nM; in that of `N#Cc1cc(F)cc(Oc2ncc(C(F)(F)F)c3c2CCC3O)c1` (stereo not shown) [Compound 32], > 1000 nM.
Still for that read-out and setting: with `N#Cc1cc(F)cc(Oc2ncc(C(F)(F)F)c3c2C[C@@H](F)[C@H]3O)c1` [Compound 33, 3-fluoro-5-(((5S,6R)-6-fluoro-5-hydroxy-4-(trifluoromethyl)-6,7-dihydro-5H-cyclopenta[c]pyridin-1-yl)oxy)benzonitrile] the figure was > 1000 nM; with `O[C@H]1c2c(C(F)(F)F)ncc(-c3ccccc3)c2C[C@H]1F` [Compound 35], > 1000 nM.
On the same count and under the same terms, with `O[C@H]1c2c(C(F)(F)F)ncc(-c3cc(F)cc(F)c3)c2C[C@H]1F` [Compound 36] the figure was 250 to 1000 nM; with `O/N=C1/c2c(C(F)(F)F)ncc(OCC(F)F)c2CC1F` (stereo not shown) [Compound 38], > 1000 nM.
`OC1CCc2c(OCC(F)F)cnc(C3(C(F)(F)F)CC3)c21` (stereo not shown) [Compound 39]: in assay [1], the IC50 is > 1000 nM.
Take `O[C@H]1c2c(C(F)(F)F)ncc(Oc3cncc(F)c3)c2[C@@H](F)[C@H]1F` [Compound 40]: the IC50 in assay [1] was < 50 nM. Moreover, the EC50 in assay [2] is < 50 nM.
With `N#Cc1cc(F)cc(Oc2nnc(C(F)(F)F)c3c2CCC3O)c1` (stereo not shown) [Compound 42, 3-fluoro-5-((5-hydroxy-4-(trifluoromethyl)-6,7-dihydro-5H-cyclopenta[d]pyridazin-1-yl)oxy)benzonitrile], in assay [1], the half-inhibitory concentration (IC50) was > 1000 nM. Also, in assay [2], the EC50 was > 1000 nM.
